Measurements published in US20260199350A1, “FLAVONES, QUINOLINONES, QUINAZOLINONES, AND AURONES, AND USES IN CK2-MEDIATED DISEASES” (Salk Institute for Biological Studies, priority 2022, published 2026).
Values after ≈ are worked out from the molar mass of the structure shown. Read-outs that look alike come from different tables or passages of the source.

Tests used:
CK2A2 = molecular target: T1, CK2A2 (Homo sapiens, UniProt P19784); assay: Radiometric kinase assay (Eurofins), CK2A2; type: biochemical; settings: read-out: CK2A2 RAD IC50
T1 construct: purchased Eurofins
T1 sequence (P19784 whole entry): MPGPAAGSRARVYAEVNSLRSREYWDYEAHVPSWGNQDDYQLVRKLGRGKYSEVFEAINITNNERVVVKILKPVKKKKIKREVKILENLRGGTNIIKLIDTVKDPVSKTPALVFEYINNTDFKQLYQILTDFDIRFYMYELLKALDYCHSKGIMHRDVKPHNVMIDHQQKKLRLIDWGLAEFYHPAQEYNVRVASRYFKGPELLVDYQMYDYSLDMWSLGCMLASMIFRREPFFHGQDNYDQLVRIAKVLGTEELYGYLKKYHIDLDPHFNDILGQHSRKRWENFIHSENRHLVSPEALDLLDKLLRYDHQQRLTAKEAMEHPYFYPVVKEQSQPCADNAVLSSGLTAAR
Source text: (§1) • ^1Radiometric kinase assay from Eurofins. Performed in astrocytes with a Promega Lumit IL-6 kit.

IL-6 secretion = IL-6 secretion assay in astrocytes (Promega Lumit IL-6 kit); type: cell-based, human; settings: Homo sapiens, Astrocyte, read-out: IL6-Inhib.
Protocol: IL-6 secretion assay. HCAs were plated at 20,000 cells per well in white clear bottom 96-well plates. Two to three days later, media was removed and replaced with media containing 10 ng/mL IL1B and compound dilution series. Five hours later, plates were processed using the Lumit IL-6 Assay Kit (Promega W6030) according to the manufacturer's instructions.
• ^1Radiometric kinase assay from Eurofins. Performed in astrocytes with a Promega Lumit IL-6 kit. A series of halogenated flavones was generated and assayed (Table 3).

Aqueous solubility = type: physicochemical; settings: read-out: Aqueous Solubility
CK2A1 = molecular target: T2, CK2A1 (Homo sapiens, UniProt P68400); assay: Radiometric kinase assay (Eurofins), CK2A1; type: biochemical; settings: read-out: CK2A1 RAD IC50
T2 construct: purchased Eurofins
T2 sequence (P68400 whole entry): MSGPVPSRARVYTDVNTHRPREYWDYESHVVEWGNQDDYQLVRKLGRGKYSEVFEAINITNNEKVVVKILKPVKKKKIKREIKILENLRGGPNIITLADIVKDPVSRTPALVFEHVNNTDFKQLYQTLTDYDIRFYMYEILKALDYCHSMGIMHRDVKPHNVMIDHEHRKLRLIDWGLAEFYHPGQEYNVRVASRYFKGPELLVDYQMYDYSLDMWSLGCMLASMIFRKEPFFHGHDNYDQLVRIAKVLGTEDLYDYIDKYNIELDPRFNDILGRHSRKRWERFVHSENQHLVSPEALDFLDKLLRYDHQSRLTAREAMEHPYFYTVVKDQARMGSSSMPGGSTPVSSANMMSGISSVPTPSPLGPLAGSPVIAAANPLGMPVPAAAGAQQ
Source text: FIGS. 4A-4F characterize flavones for in vitro and in-cell CK2 inhibition. […] Representative of two independent experiments. […] Nonlinear fit was used to calculate IC50. […] Nonlinear fit was used to calculate IC50. […] Nonlinear fit was used to calculate IC50. […] Normalized to DMSO, data are representative of three independent experiments.
as §1

NF-κB = assay: NF-κB-Luciferase reporter assay in THP-1 NF-κB-Lucia cells; type: cell-based, human; settings: FIG. 4D
Protocol: NF-κB-Luciferase reporter assay. THP-1 NF-κB-Lucia cells were plated at 10,000 cells per well with 10 ng/mL PMA. Three days later, media was removed and replaced with media containing LPS (1 μg/mL) and dilution series of compounds in flat bottom clear 96-well plates for 24 hours. A day later, 20 μL of media was transferred to a 96-well white plate and 50 μL of QuantiLuc Gold reagent (InvivoGen rep-qlcg5) was added per well; plate was mixed in the plate reader and luminescence was read using a Promega GloMax Reader.

[1] = aqueous medium (not further specified), Table 8
[2] = aqueous (not further specified), Table 3

| SMILES | IC50 (CK2A2; Table 11, aurones) [nM] | IC50 (IL-6 secretion; Table 11) [nM] | solubility (Aqueous solubility; Table 11) [µM] | IC50 (CK2A1; Table 11, aurones) [nM] | IC50 (CK2A2; Table 8, quinazolinones) [nM] | IC50 (IL-6 secretion; Table 8) [nM] | solubility (Aqueous solubility; [1]) [µM] | IC50 (CK2A1; Table 8, quinazolinones) [nM] | other results |
| --- | --- | --- | --- | --- | --- | --- | --- | --- | --- |
| COc1c(Br)cc2c(c1Br)O/C(=C\c1ccc(O)c(Cl)c1)C2=O [JKT.761A] | 48 | 2500 | 120 (≈ 55.2 µg/mL) | 67 |  |  |  |  |  |
| COc1c(Br)cc2c(c1Br)O/C(=C\c1ccc(O)cc1Cl)C2=O [JKT.762A] | > 5000 | 4400 | 58.6 (≈ 27 µg/mL) | > 5000 |  |  |  |  |  |
| COc1c(Br)cc2c(c1Br)O/C(=C\c1ccc(O)c(C(F)(F)F)c1)C2=O [JKT.763A] | 627 | 2700 | 7.9 (≈ 3.9 µg/mL) | 598 |  |  |  |  |  |
| COc1cc(/C=C2\Oc3c(cc(Br)c(OC)c3Br)C2=O)ccc1O [JKT.764A] | 383 | 12000 | < 0.01 | 521 |  |  |  |  |  |
| COc1c(Br)cc2c(c1Br)O/C(=C\c1ccc(C(=O)O)cc1)C2=O [JKT.765A] | 199 | 15000 | > 200 | 2460 |  |  |  |  |  |
| O=c1[nH]c(-c2ccc(O)c(Cl)c2)nc2c(Br)cc(Br)cc12 [JKT.772A] |  |  |  |  | 72 | 11000 | < 0.01 | 23 |  |
| O=c1[nH]c(-c2cc(Cl)c(O)c(Cl)c2)nc2c(Br)cc(Br)cc12 [JKT.773B] |  |  |  |  | 276 | > 10000 | 24.1 (≈ 11.2 µg/mL) | 243 |  |
| O=c1[nH]c(-c2cc(F)c(O)c(F)c2)nc2c(Br)cc(Br)cc12 [JKT.774A] |  |  |  |  | 1040 | > 10000 | 152 (≈ 65.5 µg/mL) | 818 |  |
| O=c1[nH]c(-c2ccc(O)c(C(F)(F)F)c2)nc2c(Br)cc(Br)cc12 [JKT.775A] |  |  |  |  | 2480 | > 10000 | 17.9 (≈ 8.31 µg/mL) | 370 |  |
| O=c1cc(-c2ccc(O)c(Br)c2)oc2c(Cl)cccc12 [JKT.777A] |  |  |  |  |  |  |  |  | IC50 (CK2A2; Table 3, halogenated flavones): 21 nM; IC50 (IL-6 secretion; Table 3): 10300 nM; solubility (Aqueous solubility; [2]): 14 µM (≈ 4.92 µg/mL); IC50 (CK2A1; Table 3, halogenated flavones): 20 nM |
| O=c1cc(-c2ccc(O)c(Br)c2)oc2ccc(Cl)cc12 [JKT.778A] |  |  |  |  |  |  |  |  | IC50 (CK2A2; Table 3, halogenated flavones): 78 nM; IC50 (IL-6 secretion; Table 3): 7400 nM; solubility (Aqueous solubility; [2]): 15.1 µM (≈ 5.31 µg/mL); IC50 (CK2A1; Table 3, halogenated flavones): 115 nM |
| COc1ccc2c(=O)cc(-c3ccc(O)c(Br)c3)oc2c1Br [JKT.780A] |  |  |  |  |  |  |  |  | IC50 (CK2A2; Table 3, halogenated flavones): 25 nM; IC50 (IL-6 secretion; Table 3): > 10000 nM; solubility (Aqueous solubility; [2]): < 0.01 µM; IC50 (CK2A1; Table 3, halogenated flavones): 9 nM |
| COc1ccc2c(=O)cc(-c3ccc(O)c(C(F)(F)F)c3)oc2c1Br [JKT.786A] |  |  |  |  |  |  |  |  | IC50 (CK2A2; Table 3, halogenated flavones): 1710 nM; IC50 (IL-6 secretion; Table 3): > 10000 nM; solubility (Aqueous solubility; [2]): < 0.01 µM; IC50 (CK2A1; Table 3, halogenated flavones): 2480 nM |
| COc1ccc2c(=O)cc(-c3ccc(O)c(Cl)c3)oc2c1Br [JKT.787A] |  |  |  |  |  |  |  |  | IC50 (CK2A2; Table 3, halogenated flavones): 16 nM; IC50 (IL-6 secretion; Table 3): 7700 nM; solubility (Aqueous solubility; [2]): < 0.01 µM; IC50 (CK2A1; Table 3, halogenated flavones): 24 nM |
| O=c1cc(-c2ccc(O)c(Cl)n2)oc2c(Br)cc(Br)cc12 [JKT.801A] |  |  |  |  |  |  |  |  | IC50 (CK2A2; Table 4): 21 nM; IC50 (IL-6 secretion; Table 4): 4400 nM; solubility (Aqueous solubility; Table 4): 155 µM (≈ 66.8 µg/mL); IC50 (CK2A1; Table 4): 24 nM |
| O=c1[nH]c(-c2ccc(O)c(Br)c2)nc2c(Cl)cc(Cl)cc12 [JKT.805A] |  |  |  |  | 2830 | > 10000 | 4.2 (≈ 1.62 µg/mL) | 2890 |  |
| O=c1[nH]c(-c2ccc(O)c(Cl)c2)nc2c(Cl)cc(Cl)cc12 [JKT.806A] |  |  |  |  | > 5000 | > 10000 | 17 (≈ 5.81 µg/mL) | > 5000 |  |
| O=c1cc(-c2ccc(O)c(Br)n2)oc2c(Br)cc(Br)cc12 [JKT.844A] |  |  |  |  |  |  |  |  | IC50 (CK2A2; Table 4): 201 nM; IC50 (IL-6 secretion; Table 4): 8000 nM; solubility (Aqueous solubility; Table 4): 148 µM (≈ 70.2 µg/mL); IC50 (CK2A1; Table 4): 265 nM |
| O=c1cc(-c2ccccc2)oc2cc(O)cc(O)c12 [chrysin] |  |  |  |  |  |  |  |  | Activity in THP-1-NF-κB-Lucia monocytes (NF-κB): No activity |

Further lines, with some results ahead:

| IC50 (CK2A2; Table 11, aurones) [nM] | IC50 (IL-6 secretion; Table 11) [nM] | solubility (Aqueous solubility; Table 11) [µM] | IC50 (CK2A1; Table 11, aurones) [nM] | IC50 (CK2A2; Table 8, quinazolinones) [nM] | IC50 (IL-6 secretion; Table 8) [nM] | solubility (Aqueous solubility; [1]) [µM] | IC50 (CK2A1; Table 8, quinazolinones) [nM] | SMILES | other results |
| --- | --- | --- | --- | --- | --- | --- | --- | --- | --- |
|  |  |  |  | > 5000 | > 10000 | 126 (≈ 47.3 µg/mL) | 910 | O=c1[nH]c(-c2cc(Cl)c(O)c(Cl)c2)nc2c(Cl)cc(Cl)cc12 [JKT.807A] |  |
|  |  |  |  | 1620 | > 10000 | 189 (≈ 64.7 µg/mL) | 2980 | O=c1[nH]c(-c2cc(F)c(O)c(F)c2)nc2c(Cl)cc(Cl)cc12 [JKT.808A] |  |
|  |  |  |  | > 5000 | > 10000 | < 0.01 | 82 | O=c1[nH]c(-c2ccc(O)c(C(F)(F)F)c2)nc2c(Cl)cc(Cl)cc12 [JKT.809A] |  |
|  |  |  |  | > 5000 | > 10000 | < 0.01 | > 5000 | COc1cc(-c2nc3c(Cl)cc(Cl)cc3c(=O)[nH]2)ccc1O [JKT.810A] |  |
| 193 | 1100 | < 0.01 | 135 |  |  |  |  | COc1c(Br)cc2c(c1Br)O/C(=C\c1ccc(O)c(I)c1)C2=O [JKT.813A] |  |
| 123 | 4300 | < 0.01 | 131 |  |  |  |  | COc1ccc2c(c1Br)O/C(=C\c1ccc(O)c(I)c1)C2=O [JKT.814A] |  |
| 26 | 4600 | < 0.01 | 47 |  |  |  |  | COc1ccc2c(c1Br)O/C(=C\c1ccc(O)c(Br)c1)C2=O [JKT.815A] |  |
| 1520 | > 10000 | < 0.01 | 119 |  |  |  |  | COc1ccc2c(c1Br)O/C(=C\c1ccc(O)cc1Br)C2=O [JKT.816A] |  |
| 53 | 6500 | < 0.01 | 59 |  |  |  |  | COc1ccc2c(c1Br)O/C(=C\c1ccc(O)c(Cl)c1)C2=O [JKT.817A] |  |
| > 5000 | > 10000 | < 0.01 | > 5000 |  |  |  |  | COc1ccc2c(c1Br)O/C(=C\c1ccc(O)cc1Cl)C2=O [JKT.818A] |  |
| 660 | 5900 | 17 (≈ 7.06 µg/mL) | 540 |  |  |  |  | COc1ccc2c(c1Br)O/C(=C\c1ccc(O)c(C(F)(F)F)c1)C2=O [JKT.819A] |  |
| 6 | > 10000 | < 0.01 | 7 |  |  |  |  | COc1cc(/C=C2\Oc3c(ccc(OC)c3Br)C2=O)ccc1O [JKT.820A] |  |
| 206 | > 10000 | 196 (≈ 73.4 µg/mL) | 1540 |  |  |  |  | COc1ccc2c(c1Br)O/C(=C\c1ccc(C(=O)O)cc1)C2=O [JKT.821A] |  |
| 804 | 2000 | < 0.01 | 2010 |  |  |  |  | O=C1/C(=C/c2cc(Cl)c(O)c(Cl)c2)Oc2c(Br)cc(Br)cc21 [JKT.822A] |  |
| 1220 | 5500 | 167 (≈ 82.5 µg/mL) | > 5000 |  |  |  |  | COc1c(Br)cc2c(c1Br)O/C(=C\c1cc(Cl)c(O)c(Cl)c1)C2=O [JKT.823A] |  |
| 140 | 10100 | > 200 | 447 |  |  |  |  | COc1ccc2c(c1Br)O/C(=C\c1cc(Cl)c(O)c(Cl)c1)C2=O [JKT.824A] |  |
|  |  |  |  | 860 | > 10000 | 22.4 (≈ 8.87 µg/mL) | 281 | O=c1[nH]c(-c2ccc(O)c(Br)c2)nc2c(Br)cccc12 [JKT.827A] |  |
|  |  |  |  | 1410 | > 10000 | 58.9 (≈ 20.7 µg/mL) | 652 | O=c1[nH]c(-c2ccc(O)c(Cl)c2)nc2c(Br)cccc12 [JKT.828A] |  |
|  |  |  |  | 659 | > 10000 | 193 (≈ 74.6 µg/mL) | 736 | O=c1[nH]c(-c2cc(Cl)c(O)c(Cl)c2)nc2c(Br)cccc12 [JKT.829A] |  |
|  |  |  |  | 1210 | > 10000 | 171 (≈ 60.4 µg/mL) | 866 | O=c1[nH]c(-c2cc(F)c(O)c(F)c2)nc2c(Br)cccc12 [JKT.830A] |  |
|  |  |  |  | > 5000 | > 10000 | 139 (≈ 53.5 µg/mL) | > 5000 | O=c1[nH]c(-c2ccc(O)c(C(F)(F)F)c2)nc2c(Br)cccc12 [JKT.831A] |  |
|  |  |  |  | > 5000 | 10500 | 61 (≈ 21.2 µg/mL) | 3940 | COc1cc(-c2nc3c(Br)cccc3c(=O)[nH]2)ccc1O [JKT.832A] |  |
|  |  |  |  | 1130 | > 10000 | < 0.01 | 1010 | COc1nc(-c2ccc(O)c(Br)c2)nc2c(Br)cc(Br)cc12 [JKT.842A] |  |
